Measured values reported in patent US20240130942A1, “Composition for Treating Hair and Skin” (DR. KURT WOLFF GMBH & CO. KG, priority 2020, published 2024).
Entries after “also recorded” stand apart in the source; their conditions may differ.

Columns and labels:
[1] = test system: Human epidermal keratinocyte cells (HaCaT); experiment: CyQUANT assay, proliferation of HaCaT cells; format: cell-based; details: after 48 h and 72 h of cultivation, versus control without DMG, FIG. 2
Description: (§1) 1. As part of an in vitro study, the effect of Na-dimethylglycinate was examined in a pH range from […] in a cell culture model with human horn-forming keratinocyte cells. For this purpose, HaCaT cells were cultured for 1, 3, 5, and 7 days in DMEM medium (including fetal calf serum and an antibiotic-antimycotic mix) and, among other things, the viability, proliferation and migration of the cells were determined using suitable measurement methods, and the expression of the growth factors relevant for cell growth was measured.
A so-called CyQUANT assay was carried out to measure the proliferation. In this fluorescence-based assay, the fluorescent dye used binds to DNA (deoxyribonucleic acid), with the content of cellular DNA being a direct measure of the number of cells in a sample.
Human epidermal keratinocyte cells (HaCaT) were seeded in a 96-well plate at a cell density of 5,000 cells/well and cultured in medium (DMEM with 10% FBS, 1% penicillin-streptomycin, 0.5% fungizone). The next day and after a further 24 h as well as 48 h and 72 h of cultivation at 37° C. and 5% by volume CO2, the cell culture medium without (control) or with the active ingredient concentrations already present was changed. […]
Cell proliferation was determined using the CyQUANT assay. The fluorescence was measured in triplicate and normalized to the control at 24 hours. […]

[2] = test system: Human epidermal keratinocyte cells (HaCaT); experiment: MTT assay, cell viability of HaCaT cells; format: cell-based; details: after 48 h and 72 h of cultivation, versus control without DMG, FIG. 1
Description: as §1
For this measurement, a so-called MTT assay was used to determine cellular metabolic activity as an indicator of cell viability and cytotoxicity. This colorimetric assay is based on the reduction of a yellow tetrazolium salt (3-(4,5-dimethylthiazol-2-yl)-2,5-diphenyltetrazolium bromide or MTT) to purple formazan crystals by metabolically active cells.
Human epidermal keratinocyte cells (HaCaT) were seeded in a 96-well plate at a cell density of 5,000 cells/well and cultured in medium (DMEM with 10% FBS, 1% penicillin-streptomycin, 0.5% fungizone). […]
Cell viability was determined using the MTT assay. The absorption was measured in quadruplicate and normalized to the control at 24 hours. […]

VEGF = experiment: Gene expression of VEGF by qRT-PCR in HaCaT cells; format: cell-based, human; details: after 24 hours of cultivation, normalized to GAPDH, versus control without DMG, FIG. 4
Description: VEGF (Vascular Endothelial Growth Factor) promotes the growth and formation of new blood and lymphatic vessels. Gene expression was measured using a standard method known as quantitative real-time PCR (qRT-PCR).
Human epidermal keratinocyte cells (HaCaT) were seeded in a 6-well plate at a cell density of 140,000 cells/well and cultured in medium (DMEM with 10% FBS, 1% penicillin-streptomycin, 0.5% fungizone) at 37° C. and 5% by volume CO2. The next day, the cell culture medium without (control) or with the active substance concentrations already present in each case was changed, and the cells were harvested after 24 h. Gene expression was measured using qRT-PCR based on studies previously published in B. V. Diaz, M.-C. Lenoir, A. Ladoux, C. Frelin, M. Demarchez, S. Michel, Journal of Biological Chemistry 2000, 275, 642-650.
The relative gene expression determined by qRT-PCR (triple determination, normalized to the respective gene expression of a constitutively expressed gene; GAPDH—glyceraldehyde-3-phosphate dehydrogenase) of VEGF is shown. Shown is the mean value with standard deviation.

HaCaT cells = experiment: Wound healing assay, cell migration; format: cell-based, human; details: images after 16 h, 20 h and 24 h, different DMG concentrations, compared to controls without DMG; FIG. 3
Description: as §1
A so-called wound healing assay was carried out to measure migration, based on previously published studies in T. Kawabata, T. Otsuka, K. Fujita, G. Sakai, R. Matsushima-Nishiwaki, O. Kozawa, H. Tokuda, International Journal of Molecular Medicine 2018, 42, 3149-3156. The principle is based on measuring the migration of cells to a cultivation surface that has not yet been colonized over time. […]
The wound was created at time 0 h and images were taken after 16 h, 20 h and 24 h of cultivation. Based on the image recordings, the cultivation surface, which was not yet colonized with cells, was determined using the ImageJ software. The measured values are normalized to the point in time 0 h (maximum size of the wound) and given in %.

CN(C)CC(=O)[O-].[Na+] [DMG, sodium dimethylglycinate]
cell proliferation (CyQUANT assay, fluorescence normalized to the control at 24 hours) [1]: clear increase | cell viability (MTT assay, absorption normalized to the control at 24 hours) [2]: clear increase | relative gene expression of VEGF (VEGF): significant increase; also recorded: significantly increased | migration or wound closure (HaCaT cells): significantly faster
